Measured values as given in paper PMC3814616, “BRAF inhibitors suppress apoptosis through off-target inhibition of JNK signaling” (eLife, 2013).
pIC50: −log10 of the molar value.

Tests used:
Assay in all cases: Quantitative competitive binding assay (KINOMEscan)
DLK (MAP3K12) = molecular target: T1, DLK (MAP3K12) (Homo sapiens, UniProt Q12852); settings: for remaining binding at 0.05 µM: read-out: Percent control (50 nM); for remaining binding at 0.2 µM: read-out: Percent control (200 nM); for remaining binding at 1 µM: read-out: Percent control (1000 nM); for remaining binding at 10 µM: read-out: Percent control (10 μM)
T1 construct: purchased KINOMEscan (DiscoveRx), San Diego, CA

MAP4K2 = molecular target: T2, MAP4K2 (Homo sapiens, UniProt Q12851); settings: for remaining binding at 0.05 µM: read-out: Percent control (50 nM); for remaining binding at 0.2 µM: read-out: Percent control (200 nM); for remaining binding at 1 µM: read-out: Percent control (1000 nM); for remaining binding at 10 µM: read-out: Percent control (10 μM)
T2 construct: purchased KINOMEscan (DiscoveRx), San Diego, CA
T2 sequence (Q12851 1-820): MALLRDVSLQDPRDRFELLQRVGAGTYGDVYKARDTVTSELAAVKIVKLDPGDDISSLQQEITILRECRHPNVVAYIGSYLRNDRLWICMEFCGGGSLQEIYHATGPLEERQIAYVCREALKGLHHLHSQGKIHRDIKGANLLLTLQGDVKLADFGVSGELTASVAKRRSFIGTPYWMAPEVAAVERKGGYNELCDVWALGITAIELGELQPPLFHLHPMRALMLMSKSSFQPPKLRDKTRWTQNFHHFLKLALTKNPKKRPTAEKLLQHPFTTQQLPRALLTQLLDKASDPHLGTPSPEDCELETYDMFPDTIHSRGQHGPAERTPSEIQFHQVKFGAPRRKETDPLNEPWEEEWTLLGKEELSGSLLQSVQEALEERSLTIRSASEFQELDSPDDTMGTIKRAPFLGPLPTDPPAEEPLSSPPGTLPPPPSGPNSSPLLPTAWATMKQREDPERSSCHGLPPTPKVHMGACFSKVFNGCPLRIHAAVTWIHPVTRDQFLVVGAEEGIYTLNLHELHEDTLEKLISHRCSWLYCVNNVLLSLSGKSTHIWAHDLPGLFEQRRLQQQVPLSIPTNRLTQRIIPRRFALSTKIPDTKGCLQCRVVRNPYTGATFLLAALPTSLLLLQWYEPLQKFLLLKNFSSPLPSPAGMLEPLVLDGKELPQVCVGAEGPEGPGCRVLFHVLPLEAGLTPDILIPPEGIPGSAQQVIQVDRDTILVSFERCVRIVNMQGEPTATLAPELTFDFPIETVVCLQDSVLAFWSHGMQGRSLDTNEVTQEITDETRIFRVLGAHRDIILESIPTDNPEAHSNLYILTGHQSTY

MAP4K3 = molecular target: T3, MAP4K3 (Homo sapiens, UniProt Q8IVH8); settings: for remaining binding at 0.05 µM: read-out: Percent control (50 nM); for remaining binding at 0.2 µM: read-out: Percent control (200 nM); for remaining binding at 1 µM: read-out: Percent control (1000 nM); for remaining binding at 10 µM: read-out: Percent control (10 μM)
T3 construct: purchased KINOMEscan (DiscoveRx), San Diego, CA
T3 sequence (Q8IVH8 1-894): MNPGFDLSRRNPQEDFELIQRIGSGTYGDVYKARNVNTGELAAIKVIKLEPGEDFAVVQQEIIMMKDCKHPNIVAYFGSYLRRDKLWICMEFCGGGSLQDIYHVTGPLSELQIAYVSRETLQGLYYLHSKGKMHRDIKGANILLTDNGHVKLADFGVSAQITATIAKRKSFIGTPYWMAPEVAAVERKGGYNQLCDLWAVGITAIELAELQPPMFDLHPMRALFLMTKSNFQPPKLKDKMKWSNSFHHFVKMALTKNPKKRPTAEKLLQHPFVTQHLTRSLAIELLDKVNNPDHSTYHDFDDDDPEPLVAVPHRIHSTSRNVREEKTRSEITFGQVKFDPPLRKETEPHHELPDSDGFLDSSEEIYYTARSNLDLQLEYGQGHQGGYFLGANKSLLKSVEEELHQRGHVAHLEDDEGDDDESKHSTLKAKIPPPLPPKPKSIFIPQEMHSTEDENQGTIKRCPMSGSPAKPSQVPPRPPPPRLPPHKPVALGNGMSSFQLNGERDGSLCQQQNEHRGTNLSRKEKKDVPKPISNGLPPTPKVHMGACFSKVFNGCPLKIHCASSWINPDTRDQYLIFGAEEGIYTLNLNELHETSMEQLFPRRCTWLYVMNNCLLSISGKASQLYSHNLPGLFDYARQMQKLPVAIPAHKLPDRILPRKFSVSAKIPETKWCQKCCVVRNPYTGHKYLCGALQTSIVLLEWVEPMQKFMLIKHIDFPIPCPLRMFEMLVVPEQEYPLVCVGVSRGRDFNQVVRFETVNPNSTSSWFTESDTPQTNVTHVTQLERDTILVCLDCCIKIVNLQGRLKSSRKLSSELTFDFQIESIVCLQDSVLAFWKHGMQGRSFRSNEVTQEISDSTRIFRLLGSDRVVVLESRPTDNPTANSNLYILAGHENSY

MAP4K4 = molecular target: T4, MAP4K4 (Homo sapiens, UniProt O95819); settings: for remaining binding at 0.05 µM: read-out: Percent control (50 nM); for remaining binding at 0.2 µM: read-out: Percent control (200 nM); for remaining binding at 10 µM: read-out: Percent control (10 μM)
T4 construct: purchased KINOMEscan (DiscoveRx), San Diego, CA

MAP4K5 = molecular target: T5, MAP4K5 (Homo sapiens, UniProt Q9Y4K4); settings: for pIC50: estimated Kd, averaged pointwise estimates, transformed Hill equation, read-out: Calculated estimate of IC50; for remaining binding at 0.05 µM: read-out: Percent control (50 nM); for remaining binding at 0.2 µM: read-out: Percent control (200 nM); for remaining binding at 1 µM: read-out: Percent control (1000 nM); for remaining binding at 10 µM: read-out: Percent control (10 μM)
T5 construct: purchased KINOMEscan (DiscoveRx), San Diego, CA

MKK7 (MAP2K7) = molecular target: T6, MKK7 (MAP2K7) (Homo sapiens, UniProt O14733); settings: for remaining binding at 0.05 µM: read-out: Percent control (50 nM); for remaining binding at 0.2 µM: read-out: Percent control (200 nM); for remaining binding at 1 µM: read-out: Percent control (1000 nM); for remaining binding at 10 µM: read-out: Percent control (10 μM)
T6 construct: purchased KINOMEscan (DiscoveRx), San Diego, CA
T6 sequence (O14733 1-419): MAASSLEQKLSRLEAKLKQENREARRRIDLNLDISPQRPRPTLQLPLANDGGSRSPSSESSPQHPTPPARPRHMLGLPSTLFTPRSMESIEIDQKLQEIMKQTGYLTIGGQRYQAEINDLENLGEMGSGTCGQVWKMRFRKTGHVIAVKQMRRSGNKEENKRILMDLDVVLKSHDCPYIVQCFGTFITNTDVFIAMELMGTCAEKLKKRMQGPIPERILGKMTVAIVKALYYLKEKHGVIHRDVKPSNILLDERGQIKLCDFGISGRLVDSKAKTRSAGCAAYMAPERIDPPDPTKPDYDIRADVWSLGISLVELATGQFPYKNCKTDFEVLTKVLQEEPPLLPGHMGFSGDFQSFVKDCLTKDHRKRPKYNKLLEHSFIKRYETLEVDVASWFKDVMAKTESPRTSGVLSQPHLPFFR

MLK2 (MAP3K10) = molecular target: T7, MLK2 (MAP3K10) (Homo sapiens, UniProt Q02779); settings: for remaining binding at 0.05 µM: read-out: Percent control (50 nM); for remaining binding at 0.2 µM: read-out: Percent control (200 nM); for remaining binding at 10 µM: read-out: Percent control (10 μM)
T7 construct: purchased KINOMEscan (DiscoveRx), San Diego, CA

SRMS = SRMS (Homo sapiens, UniProt Q9H3Y6); settings: for pIC50: estimated Kd, averaged pointwise estimates, transformed Hill equation, read-out: Calculated estimate of IC50; for remaining binding at 0.05 µM: read-out: Percent control (50 nM); for remaining binding at 0.2 µM: read-out: Percent control (200 nM); for remaining binding at 1 µM: read-out: Percent control (1000 nM); for remaining binding at 10 µM: read-out: Percent control (10 μM)
[1] = read-out: Percent control (1000 nM)

T1 sequence (Q12852 whole entry): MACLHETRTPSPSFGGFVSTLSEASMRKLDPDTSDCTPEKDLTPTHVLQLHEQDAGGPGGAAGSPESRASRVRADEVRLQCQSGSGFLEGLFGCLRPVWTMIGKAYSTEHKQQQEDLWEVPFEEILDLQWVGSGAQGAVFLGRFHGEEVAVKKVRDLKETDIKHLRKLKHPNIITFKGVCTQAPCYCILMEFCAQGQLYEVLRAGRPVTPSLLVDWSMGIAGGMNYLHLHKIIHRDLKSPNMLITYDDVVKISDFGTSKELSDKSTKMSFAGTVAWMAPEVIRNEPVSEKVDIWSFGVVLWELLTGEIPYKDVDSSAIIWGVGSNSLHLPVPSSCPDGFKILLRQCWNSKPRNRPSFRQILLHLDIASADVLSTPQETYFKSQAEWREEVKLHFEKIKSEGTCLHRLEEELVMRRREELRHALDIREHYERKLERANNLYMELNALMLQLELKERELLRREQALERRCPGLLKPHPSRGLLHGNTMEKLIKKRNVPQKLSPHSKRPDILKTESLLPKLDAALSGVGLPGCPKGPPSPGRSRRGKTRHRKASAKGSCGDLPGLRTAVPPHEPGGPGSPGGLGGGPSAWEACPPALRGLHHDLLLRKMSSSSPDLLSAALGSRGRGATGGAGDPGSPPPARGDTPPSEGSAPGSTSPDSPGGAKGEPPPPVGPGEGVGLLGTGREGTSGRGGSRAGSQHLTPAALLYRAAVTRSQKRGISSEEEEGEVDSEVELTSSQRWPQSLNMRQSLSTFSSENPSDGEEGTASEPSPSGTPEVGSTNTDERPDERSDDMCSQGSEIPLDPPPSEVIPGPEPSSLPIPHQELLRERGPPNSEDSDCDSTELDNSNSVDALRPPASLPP
T7 sequence (Q02779 whole entry): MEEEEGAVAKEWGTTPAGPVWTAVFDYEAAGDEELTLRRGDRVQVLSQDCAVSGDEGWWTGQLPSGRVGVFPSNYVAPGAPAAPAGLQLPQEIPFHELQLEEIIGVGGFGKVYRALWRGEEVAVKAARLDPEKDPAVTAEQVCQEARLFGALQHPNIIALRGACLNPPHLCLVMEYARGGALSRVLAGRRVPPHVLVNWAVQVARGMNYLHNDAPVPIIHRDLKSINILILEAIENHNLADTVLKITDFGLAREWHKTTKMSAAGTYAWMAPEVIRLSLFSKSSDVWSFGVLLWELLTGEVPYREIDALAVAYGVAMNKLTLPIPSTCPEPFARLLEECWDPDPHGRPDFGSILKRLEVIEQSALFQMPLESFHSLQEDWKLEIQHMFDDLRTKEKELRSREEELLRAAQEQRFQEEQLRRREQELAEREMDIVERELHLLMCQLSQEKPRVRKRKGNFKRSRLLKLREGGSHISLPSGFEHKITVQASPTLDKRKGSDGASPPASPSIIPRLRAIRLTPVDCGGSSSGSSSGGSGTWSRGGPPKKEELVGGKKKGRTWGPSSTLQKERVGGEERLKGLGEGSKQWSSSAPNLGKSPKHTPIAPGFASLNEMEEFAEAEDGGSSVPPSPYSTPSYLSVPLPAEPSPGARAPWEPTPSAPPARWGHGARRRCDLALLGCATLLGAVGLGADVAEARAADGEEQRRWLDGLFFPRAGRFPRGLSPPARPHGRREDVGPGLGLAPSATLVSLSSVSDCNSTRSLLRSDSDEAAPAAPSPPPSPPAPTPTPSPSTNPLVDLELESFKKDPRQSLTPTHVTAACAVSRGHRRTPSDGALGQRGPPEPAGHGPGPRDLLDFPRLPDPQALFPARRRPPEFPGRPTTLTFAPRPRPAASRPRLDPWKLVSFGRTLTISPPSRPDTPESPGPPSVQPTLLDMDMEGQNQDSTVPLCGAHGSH
Chain of SRMS (Q9H3Y6 whole entry): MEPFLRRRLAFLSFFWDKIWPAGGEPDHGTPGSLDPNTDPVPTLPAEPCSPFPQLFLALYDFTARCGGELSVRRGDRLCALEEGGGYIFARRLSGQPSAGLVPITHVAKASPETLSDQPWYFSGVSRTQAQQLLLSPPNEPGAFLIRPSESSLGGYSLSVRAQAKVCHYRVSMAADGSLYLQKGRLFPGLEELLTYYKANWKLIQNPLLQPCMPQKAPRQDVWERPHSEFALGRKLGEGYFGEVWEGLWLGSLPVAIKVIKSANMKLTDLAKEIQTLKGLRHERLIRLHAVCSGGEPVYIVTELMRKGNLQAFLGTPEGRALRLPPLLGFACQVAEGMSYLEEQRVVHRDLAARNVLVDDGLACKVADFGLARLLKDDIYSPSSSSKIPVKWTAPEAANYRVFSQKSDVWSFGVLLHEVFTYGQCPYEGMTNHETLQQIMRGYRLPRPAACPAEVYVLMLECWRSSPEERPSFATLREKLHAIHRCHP
T4 sequence (O95819 whole entry): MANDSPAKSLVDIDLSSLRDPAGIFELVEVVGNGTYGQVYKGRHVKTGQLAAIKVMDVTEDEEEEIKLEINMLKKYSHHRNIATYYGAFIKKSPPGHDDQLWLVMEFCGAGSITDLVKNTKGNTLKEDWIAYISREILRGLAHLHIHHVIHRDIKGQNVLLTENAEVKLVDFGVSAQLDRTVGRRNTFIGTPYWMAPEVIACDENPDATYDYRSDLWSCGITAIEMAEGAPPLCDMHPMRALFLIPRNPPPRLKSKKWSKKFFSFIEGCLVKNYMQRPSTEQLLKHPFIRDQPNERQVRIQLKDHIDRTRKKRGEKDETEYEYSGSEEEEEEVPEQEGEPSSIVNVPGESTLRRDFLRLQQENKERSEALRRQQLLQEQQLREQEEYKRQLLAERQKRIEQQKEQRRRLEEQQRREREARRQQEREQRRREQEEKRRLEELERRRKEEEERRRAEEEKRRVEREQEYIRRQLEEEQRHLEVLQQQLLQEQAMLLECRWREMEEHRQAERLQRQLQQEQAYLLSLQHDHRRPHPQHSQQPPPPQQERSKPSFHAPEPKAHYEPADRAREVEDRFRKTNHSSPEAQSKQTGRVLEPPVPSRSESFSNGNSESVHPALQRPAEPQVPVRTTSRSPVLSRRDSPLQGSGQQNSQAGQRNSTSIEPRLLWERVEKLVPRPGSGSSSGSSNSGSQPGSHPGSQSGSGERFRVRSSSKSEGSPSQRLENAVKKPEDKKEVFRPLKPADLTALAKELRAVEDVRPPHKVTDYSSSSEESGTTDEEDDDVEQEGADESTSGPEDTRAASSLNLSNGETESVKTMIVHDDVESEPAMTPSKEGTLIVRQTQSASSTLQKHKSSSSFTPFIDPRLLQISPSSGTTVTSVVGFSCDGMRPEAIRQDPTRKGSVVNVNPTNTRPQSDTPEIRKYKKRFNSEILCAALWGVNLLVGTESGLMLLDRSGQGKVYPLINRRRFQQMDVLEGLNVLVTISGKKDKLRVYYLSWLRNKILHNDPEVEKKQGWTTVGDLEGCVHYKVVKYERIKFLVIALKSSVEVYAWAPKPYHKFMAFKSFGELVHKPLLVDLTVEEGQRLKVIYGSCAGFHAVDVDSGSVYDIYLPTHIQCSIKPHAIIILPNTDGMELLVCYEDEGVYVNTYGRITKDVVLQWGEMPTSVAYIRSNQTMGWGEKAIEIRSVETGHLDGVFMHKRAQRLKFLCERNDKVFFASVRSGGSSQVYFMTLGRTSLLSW
T5 sequence (Q9Y4K4 whole entry): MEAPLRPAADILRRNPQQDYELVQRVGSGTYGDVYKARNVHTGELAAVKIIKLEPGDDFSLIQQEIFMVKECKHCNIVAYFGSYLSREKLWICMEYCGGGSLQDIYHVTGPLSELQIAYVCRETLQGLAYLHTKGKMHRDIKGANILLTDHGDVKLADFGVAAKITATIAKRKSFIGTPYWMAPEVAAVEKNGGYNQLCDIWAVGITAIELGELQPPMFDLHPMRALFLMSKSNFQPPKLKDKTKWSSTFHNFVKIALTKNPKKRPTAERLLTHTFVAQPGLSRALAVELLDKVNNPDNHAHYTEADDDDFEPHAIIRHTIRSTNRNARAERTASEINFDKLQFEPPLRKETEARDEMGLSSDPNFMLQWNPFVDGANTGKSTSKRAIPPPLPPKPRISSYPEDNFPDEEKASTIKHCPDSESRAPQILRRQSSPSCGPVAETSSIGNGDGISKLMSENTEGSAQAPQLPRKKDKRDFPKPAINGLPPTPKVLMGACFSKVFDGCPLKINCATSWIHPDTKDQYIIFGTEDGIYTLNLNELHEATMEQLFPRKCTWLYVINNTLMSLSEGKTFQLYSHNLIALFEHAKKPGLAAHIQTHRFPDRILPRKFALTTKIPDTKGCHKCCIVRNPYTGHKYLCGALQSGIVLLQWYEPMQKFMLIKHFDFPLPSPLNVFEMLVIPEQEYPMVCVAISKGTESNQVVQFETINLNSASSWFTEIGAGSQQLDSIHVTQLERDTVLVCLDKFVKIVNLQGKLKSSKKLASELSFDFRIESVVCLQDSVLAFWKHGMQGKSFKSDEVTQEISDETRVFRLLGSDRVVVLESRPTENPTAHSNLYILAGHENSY

## CCCS(=O)(=O)Nc1ccc(F)c(C(=O)c2c[nH]c3ncc(Cl)cc23)c1F [PLX4720]
DLK (MAP3K12)
  remaining binding at 0.05 µM: 95%
  remaining binding at 0.2 µM: 98%
  remaining binding at 1 µM: 100%
  remaining binding at 10 µM: 92%
MAP4K2
  remaining binding at 0.05 µM: 98%
  remaining binding at 0.2 µM: 100%
  remaining binding at 1 µM: 99%
  remaining binding at 10 µM: 67%
MAP4K3
  remaining binding at 0.05 µM: 100%
  remaining binding at 0.2 µM: 95%
  remaining binding at 1 µM: 90%
  remaining binding at 10 µM: 56%
MAP4K4
  remaining binding at 0.05 µM: 92%
  remaining binding at 0.2 µM: 99%
  remaining binding at 10 µM: 46%
MAP4K4; [1]
  remaining binding at 1 µM: 100%
MAP4K5
  pIC50: 5.90
  remaining binding at 0.05 µM: 96%
  remaining binding at 0.2 µM: 100%
  remaining binding at 1 µM: 63%
  remaining binding at 10 µM: 8%
MKK7 (MAP2K7)
  remaining binding at 0.05 µM: 100%
  remaining binding at 0.2 µM: 100%
  remaining binding at 1 µM: 100%
  remaining binding at 10 µM: 84%
MLK2 (MAP3K10)
  remaining binding at 0.05 µM: 100%
  remaining binding at 0.2 µM: 82%
  remaining binding at 10 µM: 76%
MLK2 (MAP3K10); [1]
  remaining binding at 1 µM: 100%
SRMS
  pIC50: 9.19
  remaining binding at 0.05 µM: 1.9%
  remaining binding at 0.2 µM: 0.55%
  remaining binding at 1 µM: 0.05%
  remaining binding at 10 µM: 0%

## CCCS(=O)(=O)Nc1ccc(F)c(C(=O)c2c[nH]c3ncc(-c4ccc(Cl)cc4)cc23)c1F [vemurafenib]
DLK (MAP3K12)
  remaining binding at 0.05 µM: 98%
  remaining binding at 0.2 µM: 97%
  remaining binding at 1 µM: 66%
  remaining binding at 10 µM: 92%
MAP4K2
  remaining binding at 0.05 µM: 99%
  remaining binding at 0.2 µM: 82%
  remaining binding at 1 µM: 95%
  remaining binding at 10 µM: 46%
MAP4K3
  remaining binding at 0.05 µM: 80%
  remaining binding at 0.2 µM: 90%
  remaining binding at 1 µM: 82%
  remaining binding at 10 µM: 24%
MAP4K4; estimated Kd, averaged pointwise estimates, transformed Hill equation, read-out: Calculated estimate of IC50
  pIC50: 5.55
MAP4K4
  remaining binding at 0.05 µM: 96%
  remaining binding at 0.2 µM: 92%
  remaining binding at 10 µM: 23%
MAP4K5
  pIC50: 7.24
  remaining binding at 0.05 µM: 62%
  remaining binding at 0.2 µM: 33%
  remaining binding at 1 µM: 4.1%
  remaining binding at 10 µM: 0.1%
MKK7 (MAP2K7)
  remaining binding at 0.05 µM: 97%
  remaining binding at 0.2 µM: 95%
  remaining binding at 1 µM: 94%
  remaining binding at 10 µM: 85%
MLK2 (MAP3K10)
  remaining binding at 0.05 µM: 92%
  remaining binding at 0.2 µM: 96%
  remaining binding at 10 µM: 78%
SRMS
  pIC50: 7.95
  remaining binding at 0.05 µM: 24%
  remaining binding at 0.2 µM: 9.6%
  remaining binding at 1 µM: 0.75%
  remaining binding at 10 µM: 0%
